{
  "source": "ChEMBL document CHEMBL4715849",
  "about": "“Recent Progress in the Discovery of Antifungal Agents Targeting the Cell Wall” (J Med Chem, 2020)",
  "key": {"Candida albicans [1]": {"tested_on": "Candida albicans", "assay": "Antifungal activity against Candida albicans A9540 incubated for 24 hrs by broth microdilution method", "type": "functional"}, "Candida albicans [2]": {"tested_on": "Candida albicans", "assay": "Antifungal activity against Candida albicans IAM 888 incubated for 24 hrs by broth microdilution method", "type": "functional"}, "Candida albicans [3]": {"tested_on": "Candida albicans", "assay": "Antifungal activity against Candida albicans ATCC 32354 incubated for 24 hrs by broth microdilution method", "type": "functional"}, "Candida albicans [4]": {"tested_on": "Candida albicans", "assay": "Antifungal activity against Candida albicans 83-2-14 incubated for 24 hrs by broth microdilution method", "type": "functional"}, "Candida tropicalis [5]": {"tested_on": "Candida tropicalis", "assay": "Antifungal activity against Candida tropicalis 85-5 incubated for 24 hrs by broth microdilution method", "type": "functional"}, "Candida tropicalis [6]": {"tested_on": "Candida tropicalis", "assay": "Antifungal activity against Candida tropicalis IFO10241 incubated for 24 hrs by broth microdilution method", "type": "functional"}, "[7]": {"assay": "Inhibition of Candida albicans IFO1060 1,3-beta-D-glucan synthase"}, "Candida albicans [8]": {"tested_on": "Candida albicans", "assay": "Antifungal activity against Candida albicans […] by NCCLS protocol based broth M27-A microdilution method", "type": "functional, organism-based"}, "Candida albicans [9]": {"tested_on": "Candida albicans", "assay": "Antifungal activity against Candida albicans CY1002 infected in iv dosed ICR mouse administered as single dose measured on day 7", "type": "functional", "settings": "168 h, time 7 day"}, "Chitin synthase 1": {"target": "Chitin synthase 1 (Candida albicans, UniProt P23316)", "sequence (P23316 whole entry)": "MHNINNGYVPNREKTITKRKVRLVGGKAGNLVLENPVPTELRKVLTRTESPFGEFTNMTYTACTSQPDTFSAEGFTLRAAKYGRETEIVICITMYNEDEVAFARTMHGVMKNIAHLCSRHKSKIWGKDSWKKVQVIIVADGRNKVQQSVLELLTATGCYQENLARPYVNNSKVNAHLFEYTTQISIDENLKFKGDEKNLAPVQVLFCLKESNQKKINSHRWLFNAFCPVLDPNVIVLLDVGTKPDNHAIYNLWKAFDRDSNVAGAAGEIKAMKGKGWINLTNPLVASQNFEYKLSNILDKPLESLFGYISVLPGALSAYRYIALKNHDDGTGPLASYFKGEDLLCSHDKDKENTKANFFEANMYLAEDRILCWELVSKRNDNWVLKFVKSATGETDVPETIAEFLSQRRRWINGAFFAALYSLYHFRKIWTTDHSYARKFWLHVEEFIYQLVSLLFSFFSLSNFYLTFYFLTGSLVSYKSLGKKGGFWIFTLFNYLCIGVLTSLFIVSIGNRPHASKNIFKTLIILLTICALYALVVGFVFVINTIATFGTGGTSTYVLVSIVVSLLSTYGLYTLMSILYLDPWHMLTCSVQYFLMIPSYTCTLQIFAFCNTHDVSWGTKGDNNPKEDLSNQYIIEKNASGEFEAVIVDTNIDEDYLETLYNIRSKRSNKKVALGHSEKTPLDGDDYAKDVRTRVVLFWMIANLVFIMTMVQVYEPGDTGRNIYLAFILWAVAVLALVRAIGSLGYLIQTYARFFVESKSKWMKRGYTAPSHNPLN", "assay": "Inhibition of Candida albicans chitin synthase 1 expressed in Saccharomyces cerevisiae RRA400-1U cells using [3H]UDP-GlcNAc as substrate by scintillation counting method"}, "Candida albicans [10]": {"tested_on": "Candida albicans", "assay": "Antifungal activity against Candida albicans CAI4 incubated for 24 hrs", "type": "functional"}, "Candida albicans [11]": {"tested_on": "Candida albicans", "assay": "Antifungal activity against Candida albicans Ca2323/ORF6.945 by CLSI method", "type": "functional"}, "Candida albicans [12]": {"tested_on": "Candida albicans", "assay": "Antifungal activity against Candida albicans Ca1055 by CLSI method", "type": "functional"}, "Candida parapsilosis": {"tested_on": "Candida parapsilosis", "assay": "Antifungal activity against Candida parapsilosis ATCC22019 by CLSI method", "type": "functional", "settings": "Lodderomyces parapsilosis"}, "Clavispora lusitaniae": {"tested_on": "Clavispora lusitaniae", "assay": "Antifungal activity against Candida lusitaniae MY1396 by CLSI method", "type": "functional"}, "Nakaseomyces glabratus [13]": {"tested_on": "Nakaseomyces glabratus", "assay": "Antifungal activity against Candida glabrata MY1381 by CLSI method", "type": "functional"}, "Aspergillus fumigatus [14]": {"tested_on": "Aspergillus fumigatus", "assay": "Antifungal activity against Aspergillus fumigatus MF5668 by CLSI method", "type": "functional"}, "Pichia kudriavzevii": {"tested_on": "Pichia kudriavzevii", "assay": "Antifungal activity against Candida krusei ATCC 6258 by CLSI method", "type": "functional"}, "[15]": {"assay": "Inhibition of Candida albicans glucosamine-6-phosphate synthase by Elson-Morgan method"}, "Candida albicans [16]": {"tested_on": "Candida albicans", "assay": "Antifungal activity against Candida albicans ATCC 10261 incubated for 24 hrs by serial dilution method", "type": "functional"}, "Candida albicans [17]": {"tested_on": "Candida albicans", "assay": "Antifungal activity against Candida albicans ATCC 26278 incubated for 24 hrs by serial dilution method", "type": "functional"}, "Debaryomyces hansenii": {"tested_on": "Debaryomyces hansenii", "assay": "Antifungal activity against Candida famata incubated for 24 hrs by serial dilution method", "type": "functional"}, "Vanrija humicola": {"tested_on": "Vanrija humicola", "assay": "Antifungal activity against Candida humicola incubated for 24 hrs by serial dilution method", "type": "functional"}, "Nakaseomyces glabratus [18]": {"tested_on": "Nakaseomyces glabratus", "assay": "Antifungal activity against Candida glabrata incubated for 24 hrs by serial dilution method", "type": "functional"}, "[19]": {"assay": "Inhibition of Candida albicans GWT1 expressed in Saccharomyces cerevisiae using UDP-GlcNAc as substrate incubated for 20 mins followed by palmitoyl-CoA addition and measured after 2 hrs by TLC-based autography"}, "[20]": {"assay": "Inhibition of Aspergillus fumigatus GWT1 expressed in Saccharomyces cerevisiae using UDP-GlcNAc as substrate incubated for 20 mins followed by palmitoyl-CoA addition and measured after 2 hrs by TLC-based autography"}, "Candida albicans [21]": {"tested_on": "Candida albicans", "assay": "Antifungal activity against Candida albicans CAF2-1", "type": "functional"}, "Aspergillus fumigatus [22]": {"tested_on": "Aspergillus fumigatus", "assay": "Antifungal activity against Aspergillus fumigatus(Tsukuba)", "type": "functional"}, "Candida albicans [23]": {"tested_on": "Candida albicans", "assay": "Antifungal activity against Candida albicans CY1002 by NCCLS-based M27-A broth microdilution method", "type": "functional"}, "Aspergillus fumigatus [24]": {"tested_on": "Aspergillus fumigatus", "assay": "Antifungal activity against Aspergillus fumigatus CF1003 by NCCLS-based M27-A broth microdilution method", "type": "functional"}, "[25]": {"assay": "Inhibition of Mucor flavus IFO9560 chitin synthase incubated for 6 to 20 hrs by Lineweaver-Burk analysis"}, "Mucor racemosus": {"tested_on": "Mucor racemosus", "assay": "Antifungal activity against Mucor racemosus IF09255 by serial broth dilution method", "type": "functional"}, "[26]": {"assay": "Antifungal activity against Mucor piriformis IF09416 by serial broth dilution method", "type": "functional"}, "Mucor mucedo [27]": {"tested_on": "Mucor mucedo", "assay": "Antifungal activity against Mucor mucedo IF07684 by serial broth dilution method", "type": "functional"}, "Mucor mucedo [28]": {"tested_on": "Mucor mucedo", "assay": "Antifungal activity against Mucor mucedo IF06750 by serial broth dilution method", "type": "functional"}, "Mucor mucedo [29]": {"tested_on": "Mucor mucedo", "assay": "Antifungal activity against Mucor mucedo IF05776 by serial broth dilution method", "type": "functional"}, "Mucor hiemalis": {"tested_on": "Mucor hiemalis", "assay": "Antifungal activity against Mucor hiemalis IFO9400 by serial broth dilution method", "type": "functional"}, "Mucor javanicus": {"tested_on": "Mucor javanicus", "assay": "Antifungal activity against Mucor javanicus IFO4569 by serial broth dilution method", "type": "functional"}, "[30]": {"assay": "Antifungal activity against Mucor flavus IFO9560 by serial broth dilution method", "type": "functional"}},
  "note": "pIC50, pKi: −log10 of the molar value.",
  "data": [
    {"smiles": "CCC/C=C/C=C/C=C/C(=O)OC[C@H]1O[C@@H](O[C@H]2[C@H](OC(=O)/C=C/C=C/C[C@H](O)/C=C/C=C/C=C/CCC)[C@@H](O)[C@@]3(OCc4cc(O)cc(O)c43)O[C@@H]2CO)[C@H](O)[C@@H](O)[C@H]1O", "values": [
      {"measurement": "MIC", "setting": "Candida albicans [1]", "value": 0.1, "unit": "µg/mL"},
      {"measurement": "MIC", "setting": "Candida albicans [2]", "value": 0.1, "unit": "µg/mL"},
      {"measurement": "MIC", "setting": "Candida albicans [3]", "value": 0.1, "unit": "µg/mL"},
      {"measurement": "MIC", "setting": "Candida albicans [4]", "value": 0.1, "unit": "µg/mL"},
      {"measurement": "MIC", "setting": "Candida tropicalis [5]", "value": 0.1, "unit": "µg/mL"},
      {"measurement": "MIC", "setting": "Candida tropicalis [6]", "value": 0.1, "unit": "µg/mL"}
    ]},
    {"smiles": "CCCCCCCCCCCCC[C@H]1OC(=O)[C@H](CCCN)NC(=O)[C@@H]([C@@H](C)O)NC(=O)CNC(=O)[C@H]([C@H](O)CCN)NC(=O)[C@H]2[C@@H](O)CCN2C(=O)[C@H]([C@@H](C)O)NC(=O)[C@@H]2C[C@@H](O)CN2C(=O)[C@H](C(C)C)NC(=O)[C@H](Cc2ccc(O)cc2)NC(=O)[C@@H](C)NC(=O)[C@H]([C@@H](C)O)NC1=O", "values": [
      {"measurement": "pIC50", "setting": "[7]", "value": 8.22},
      {"measurement": "IC50", "setting": "Candida albicans [8]", "value": 0.01, "unit": "µg/mL"},
      {"measurement": "ED50", "setting": "Candida albicans [9]", "value": 0.04, "unit": "mg/kg"}
    ]},
    {"smiles": "CC(C)(C)C#CC=CCNc1cccc2[nH]c(=O)ccc12", "values": [
      {"measurement": "pKi", "setting": "Chitin synthase 1", "value": 6.20},
      {"measurement": "MIC50", "setting": "Candida albicans [10]", "value": 3.3, "unit": "µM"}
    ]},
    {"smiles": "C=C1[C@@H]2C[C@@H]3[C@H](C(C)C)[C@@H](OC(=O)CC(C)(O)CC(C)CC)C[C@@]3(C)C[C@H]2/C(C)=C\\C[C@@H]2[C@@H](C)OC(=O)[C@H](O)[C@]12O", "note": "(some centres undefined)", "values": [
      {"measurement": "MIC", "setting": "Candida albicans [11]", "value": 0.5, "unit": "µg/mL"},
      {"measurement": "MIC", "setting": "Candida albicans [12]", "value": 0.5, "unit": "µg/mL"},
      {"measurement": "MIC", "setting": "Candida parapsilosis", "value": 0.5, "unit": "µg/mL"},
      {"measurement": "MIC", "setting": "Clavispora lusitaniae", "value": 0.25, "unit": "µg/mL"},
      {"measurement": "MIC", "setting": "Nakaseomyces glabratus [13]", "value": 0.5, "unit": "µg/mL"},
      {"measurement": "MIC", "setting": "Aspergillus fumigatus [14]", "value": 0.25, "unit": "µg/mL"},
      {"measurement": "MIC", "setting": "Pichia kudriavzevii", "value": 1, "unit": "µg/mL"}
    ]},
    {"smiles": "COP(=O)(OC)OC[C@@H](O)[C@@H](O)[C@H](O)[C@@H](N)CO", "values": [
      {"measurement": "pIC50", "setting": "[15]", "value": 2.32},
      {"measurement": "MIC", "setting": "Candida albicans [16]", "value": 300, "unit": "µg/mL"},
      {"measurement": "MIC", "setting": "Candida albicans [17]", "value": 300, "unit": "µg/mL"},
      {"measurement": "MIC", "setting": "Debaryomyces hansenii", "value": 300, "unit": "µg/mL"},
      {"measurement": "MIC", "setting": "Vanrija humicola", "value": 300, "unit": "µg/mL"},
      {"measurement": "MIC", "setting": "Nakaseomyces glabratus [18]", "value": 300, "unit": "µg/mL"}
    ]},
    {"smiles": "Nc1ncccc1-c1cc(Cc2ccc(COc3ccccn3)cc2)no1", "note": "[MANOGEPIX]", "values": [
      {"measurement": "pIC50", "setting": "[19]", "value": 6.57},
      {"measurement": "pIC50", "setting": "[20]", "value": 6.22},
      {"measurement": "MIC", "setting": "Candida albicans [21]", "value": 0.05, "unit": "µg/mL"},
      {"measurement": "MIC", "setting": "Aspergillus fumigatus [22]", "value": 0.2, "unit": "µg/mL"}
    ]},
    {"smiles": "C[C@@H]([C@H](N)C(=O)N[C@H](C(=O)O)[C@H]1O[C@@H](n2ccc(=O)[nH]c2=O)[C@H](O)[C@@H]1O)[C@H](O)c1ccc(O)cn1", "note": "[NIKKOMYCIN]", "values": [
      {"measurement": "MIC50", "setting": "Candida albicans [23]", "value": 12, "unit": "µg/mL"},
      {"measurement": "MIC50", "setting": "Aspergillus fumigatus [24]", "value": 11, "unit": "µg/mL"}
    ]},
    {"smiles": "C[C@@H]1C[C@H]2O[C@@H]2/C=C\\C=C\\C(=O)Cc2c(Cl)c(O)cc(O)c2C(=O)O1", "note": "[RADICICOL]", "values": [
      {"measurement": "pKi", "setting": "[25]", "value": 4.06},
      {"measurement": "MIC", "setting": "Mucor racemosus", "value": 0.39, "unit": "µg/mL"},
      {"measurement": "MIC", "setting": "[26]", "value": 0.39, "unit": "µg/mL"},
      {"measurement": "MIC", "setting": "Mucor mucedo [27]", "value": 0.39, "unit": "µg/mL"},
      {"measurement": "MIC", "setting": "Mucor mucedo [28]", "value": 0.39, "unit": "µg/mL"},
      {"measurement": "MIC", "setting": "Mucor mucedo [29]", "value": 0.39, "unit": "µg/mL"},
      {"measurement": "MIC", "setting": "Mucor hiemalis", "value": 0.39, "unit": "µg/mL"},
      {"measurement": "MIC", "setting": "Mucor javanicus", "value": 0.39, "unit": "µg/mL"},
      {"measurement": "MIC", "setting": "[30]", "value": 0.39, "unit": "µg/mL"}
    ]}
  ]
}
